Source: patent US20250206724A1, “SUBSTITUTED 3-AMINO INDAZOLE DERIVATIVES AS KINASE INHIBITORS” (NERVIANO MEDICAL SCIENCES S.R.L., priority 2022, published 2025)
Structures can show the parent of a compound that is named as a salt. Where two headings read alike, the source gives them in different places.

Columns and labels:
NB-4 = experiment: Cytotoxicity assay (CellTiterGlo, 72 hours treatment), NB-4; format: cell-based, Human; settings: NB-4 acute myeloid leukemia cells, ATP determination, read-out: Cell line IC50 NB-4
Experimental: (§1) Cell Lines and Cell Cultures
(§2) All cell lines were seeded at a density ranging from 2,400 to 8,000 cells/well in 384-well cell culture microplates and incubated at […] in a humidified 5% […] atmosphere 24 hours before treatment. Compound solutions were directly administered to the cells using the D300e digital dispenser (Tecan) to obtain scalar final concentrations ranging from 5 nM to 10 μM (duplicate wells for each point), with 80 uL final volume per well. The final DMSO concentration in test wells was adjusted to 0.1% (v/v); control wells were mock-treated and contained the same final concentration of DMSO.
(§3) Cell viability was determined after 72 hours treatment by ATP determination in each test well with a luciferase-based detection system (CellTiterGlo, Promega, Madison, WI, USA), following manufacturer's instructions. The intensity of emitted light was measured using an EnVision reader (PerkinElmer, Waltham, MA USA) and expressed as RLU. One to three independent experiments were performed for each cell line, as indicated.
(§4) Analysis of Antiproliferative Data
(§5) Cell growth inhibitory activity was evaluated comparing treated versus control data using the Assay Explorer software suite (Symix Technologies Inc.). IC50s values were calculated by sigmoidal fitting interpolation using the following quadriparametric Hill equation: […]
(§6) The Top, Bottom and Hill slope parameters were left free to assume any value, but only curves whose Hill slope had values between 0.5 and 4 were arbitrarily considered acceptable and used to calculate the average IC50s. Curves too steep (HillSlope≥4) or too slight (HillSlope≤0.5) were not included (Table C).

EoL-1-cell = experiment: Cytotoxicity assay (CellTiterGlo, 72 hours treatment), EoL-1; format: cell-based, Human; settings: EoL-1 acute myeloid leukemia cells, ATP determination, read-out: Cell line IC50 EoL-1-cell
Experimental: as §1, §2, §3, §4, §5, §6

MOLM-13 = experiment: Cytotoxicity assay (CellTiterGlo, 72 hours treatment), MOLM-13; format: cell-based, Human; settings: MOLM-13 acute myeloid leukemia cells, ATP determination, read-out: Cell line IC50 MOLM-13
Experimental: as §1, §2, §3, §4, §5, §6

CDK11A = target: T1, CDK11A (Homo sapiens, UniProt Q9UQ88); settings: displacement of SNS-032-Atto590 probe (0.002 μM) from CDK11A-p58 (0.032 uM), fluorescence polarization;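 also: compound preincubated 30 min with CDK11A-p58, then probe added and polarization (mP) read 15 min later, 0% displacement is probe plus enzyme, 100% is probe alone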
T1 sequence (Q9UQ88 346-783): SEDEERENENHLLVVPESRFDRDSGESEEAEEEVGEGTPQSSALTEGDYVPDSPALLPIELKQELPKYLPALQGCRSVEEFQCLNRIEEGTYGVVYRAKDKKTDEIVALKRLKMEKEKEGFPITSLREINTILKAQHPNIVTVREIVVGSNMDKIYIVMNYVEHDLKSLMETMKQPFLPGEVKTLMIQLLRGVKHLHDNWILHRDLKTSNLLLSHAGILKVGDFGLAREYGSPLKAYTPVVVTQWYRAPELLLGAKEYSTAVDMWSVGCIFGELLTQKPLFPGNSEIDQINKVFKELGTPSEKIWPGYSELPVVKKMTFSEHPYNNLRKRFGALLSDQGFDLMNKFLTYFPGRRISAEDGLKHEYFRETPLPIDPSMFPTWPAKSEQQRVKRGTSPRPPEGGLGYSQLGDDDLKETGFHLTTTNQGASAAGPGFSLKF
Experimental: Biochemical Kinase Inhibition Assay on CDK11 in Displacement Assay Format
Displacement Assay Format
Fluorescence Polarization (FP) experiments were carried out at room temperature using no-binding black 384-well microplates (Corning, NY), in 50 mM Tris HCl, pH 8, 10 mM MgCl2, 1 mM DTT, 1 mM CHAPS in a final volume of 60 μl. The plate reader was the Pherastar microplate reader (BMG). Polarization values were read using excitation and emission wavelengths of 590 and 675 nm, respectively. All FP values are expressed as mP units.
Compounds were 4-folds serially diluted in 100% DMSO and added directly to the CDK11A-p58 solution using the pin tool (V & P Scientific): 0.2 ul of the different compound concentrations in 20 ul of enzyme solution. After an incubation of 30 minutes at r.t., 40 ul of probe solution were added. […] The Pherastar reading is performed after 15 minutes of all components incubation. For each assay, high controls (equivalent to 0% displacement) contain probe, CDK11A-p58, and 0.33% DMSO, whereas low controls (equivalent to 100% displacement) contain only probe and 0.33% DMSO. Controls are used for the Z′ and signal to background evaluation.
The data per each molecule are analyzed by Prism SW or an internally customized version of the SW package “Assay Explorer” which provides sigmoidal fittings of the ten-dilution curves for DC50 determination using a 4 parameters logistic equation:
where x is the logarithm of the inhibitor concentration, y is the response; y starts at bottom and goes to top with a sigmoid shape.

DC50 (CDK11A) [nM] | Structure (SMILES) | IC50 (NB-4) [nM] | IC50 (EoL-1-cell) [nM] | IC50 (MOLM-13) [nM] | IC50 (NB-4; Homo sapiens, NB-4, 72 h) [nM] | IC50 (EoL-1-cell; Homo sapiens, EOL1, 72 h) [nM] | IC50 (MOLM-13; Homo sapiens, MOLM-13, 72 h) [nM]
181 | CC1(C)CCC(C(=O)Nc2n[nH]c3ccc(-c4cc(C#N)ccc4Cl)cc23)CN1 (single isomer, unassigned; (-)) [compound 203, (−)-N-[5-(2-Chloro-5-cyanophenyl)-1H-indazol-3-yl]-6,6-dimethylpiperidine-3-carboxamide] | 1320 | 1250 | 1380 |  |  | 
30 | N#Cc1ccc(Cl)c(-c2ccc3[nH]nc(NC(=O)[C@@H]4CCC5(CCCC5)NC4)c3c2)c1 (single isomer, unassigned) [compound 204, (8+)-N-[5-(2-Chloro-5-cyanophenyl)-1H-indazol-3-yl]-6-azaspiro[4.5]decane-8-carboxamide hydrochloride] |  |  |  | 211 | 237 | 194
15 | CC1(C)CCC(C(=O)Nc2n[nH]c3ccc(-c4cc(C#N)ccc4Cl)cc23)CN1 (single isomer, unassigned; (+)) [compound 202, (+)-N-[5-(2-Chloro-5-cyanophenyl)-1H-indazol-3-yl]-6,6-dimethylpiperidine-3-carboxamide] | 56 | 73 | 77 |  |  | 
